Measurements as given in publication PMC8147177, “Bio-Insecticide of Thymus vulgaris and Ocimum basilicum Extract from Cell Suspensions and Their Inhibitory Effect against Serine, Cysteine, and Metalloproteinases of the Red Palm Weevil (Rhynchophorus ferrugineus)” (Insects, 2021).
Values after ≈ are worked out from the molar mass of the structure shown.

How the values were obtained:
Format in all cases: biochemical, Rhynchophorus ferrugineus
[1] = system: total proteases of R. ferrugineus midgut; test: Total proteolytic enzyme activity (azocasein) in 4th instar larval midgut homogenate; settings: for IC50 against total proteases: in vitro, midgut of 4th instar larvae; for Specific activity, Total Proteases: control 25.83 ± 0.45
Protocol: Protein determination was carried out according to the Lowry method. Total proteolytic enzyme activity using azocasein was assessed in the 4th midgut instars larvae homogenate of R. ferrugineus according to Olga et al., [42] with modifications. The 4th midgut larvae homogenates of lab strain (10 larvae) were pulled out gently, excised, and washed using a saline solution (0.9% (w/v) NaCl) repeatedly and then homogenized using 500 µL of an assay buffer. The midgut instar was homogenized in 500 µL of a protease assay buffer [50 mM HEPS (N-2-hydroxyelthyl piperazin-N′-2-ehtanesulphonic acid), pH 8.0, 5 mM dithiothreitol (DTT) and 0.1% (v/v) Triton X-100]. The reserve homogenates that were obtained from a previous step were centrifuged at 5000× g for 30 min using a Sigma 3k30 cooling centrifuge. The supernatants were used for estimation of the total proteolytic enzyme activity and protein concentration. Ten microliters of supernatant per assay was incubated in a total volume of 60 µL of assay buffer (pH 8) for 20 min at 37 °C before the addition of 200 µL of azocasien (2%, w/v in an assay buffer).
In all cases, enzyme samples of 10 μL, hydro distillate extract from the cell suspension after 40 days, and pure compounds (thymol, estragole, p-cymene, γ-terpinene, linalool, β-terpineol, ocimene, eugenol, 1,8-cineole, β-Caryophyllene, and germacrene D) (50, 100, 500, 1000, and 5000 mg/L) were pre-incubated together for 10 min. Substrate was then added to start the reaction (20 min for Leupeptin). The reaction lasted for 180 min at 37 °C and was then stopped using 300 µL of cold 10% (v/v) trichloroacetic acid (TCA). The reaction mixture was centrifuged at 5000× g for 20 min using the Sigma 3k30 cooling centrifuge. Ten microliters of NaOH (10 N) was added to the supernatant, and absorbency at 450 nm was measured using an ELISA plate reader. An assay mixture without an enzyme was used as a blank, the specific activity of total proteolytic enzymes was calculated as OD450. mg^−1·protein^−1·h^−1, and a blank sample was determined without an enzyme solution.
(§1) Specific protease inhibitors were added to the reactions of proteolytic activity determination assays, and the inhibitors were: PMSF, a general serine proteinase inhibitor; TLCK, a trypsin-like serine proteinase inhibitor; TPCK, a chymotrypsin-like serine proteinase inhibitor; an iodoacetic acid-like cysteine proteinase inhibitor; an EDTA-like metalloproteinase inhibitor; and leupeptin, a general proteinase inhibitor. The 4th midgut larval homogenates of a lab strain were prepared as described above in the assay for enzyme activity determination. The inhibition assay was carried out on a microplate assay as described above. A series of inhibitor concentrations was prepared in order to establish the maximum inhibition by each inhibitor. The leupeptin (0.01, 0.05, 0.1, and 1.0 mM), PMSF (0.1, 1.0, 10, and 50 mM), TLCK and TPCK (0.01, 0.05, 0.1, 1, 50, and 100 mM), EDTA (0.1, 1, 10, 50, and 100 mM), and iodoacetic acid concentrations (0.01, 0.05, 0.1, and 1 mM) were dissolved in the assay buffers.
(§2) To identify the proteases present in the R. ferrugineus 4th midgut larval instar homogenate preparations, different mechanistic class inhibitors were tested. In all protease types, enzyme samples of 10 µL and inhibitors or extracts from the cell suspension after 40 days or pure compounds (thymol, p-cymene, γ-terpinene, β-caryophyllene, linalool, estragole, β-terpineol, ocimene, 1,8-cineole, germacrene D, and eugenol) (1, 10, 50, 100, 500, 1000, and 5000 mg/L) were pre-incubated for 10 min before adding the substrate. An assay mixture without inhibitors was used as control. Absorbance was measured using an ELISA plate reader at different nm according to the type of enzymes. Percent activity of the control for each inhibitor was calculated to each enzyme.

[2] = system: elastase-like proteinase of R. ferrugineus midgut; test: Elastase-like serine proteinase specific activity assay (SAAPLpNA) in 4th instar midgut homogenate; settings: for Specific activity, Elastase: control 8.23 ± 0.02; for IC50 against elastase: in vitro, midgut of 4th instar larvae
Protocol: (§3) Serine proteinase specific activities were assayed, as described by Olga et al. with modifications, using a rapid microplate assay with synthetic substrates in 150 µL reaction mixtures containing a serine protease assay buffer (100 mM Tris-HCl, pH 8.1). Na-benzoyl-L-arginine ρ-nitroanilide (BAρNA) was evaluated for trypsin-like proteinases, N-succinyl-ala-alapro-leucine ρ-nitroanilide (SAAPLρNA) for elastase-like proteinases, and N-succinyl-ala-ala-pro-phenylalanine ρ-nitroanilide (SAAPFρNA) for chymotrypsin-like proteinases.
(§4) The 4th instar midguts were homogenized with the assay buffer. The homogenates of midguts were centrifuged at 8000× g for 30 min using Sigma 3K 30 rotors No. 12158 (Sigma laboratories centrifuge 3K30). Enzyme (10 µL) was added to each plate well (containing 40 µL of buffers) for the assays chymotrypsin-, trypsin-, and elastase-like proteinases. Stock substrates of BAρNA (100 mg/mL in DMSO), SAAPFρNA (100 mg/mL in DMF), and SAAPLρNA (100 mg/mL in DMF) were diluted to 1.0 mg/mL with an assay buffer. The total volume of the substrate was 50 µL. The reaction mixture was immediately incubated at 37 °C for 15 min and then stopped with 50 µL 30% acetic acid. Nitroaniline was measured at 405 nm using an ELISA plate reader. An assay mixture with a denaturation enzyme instead of a live enzyme was used as the blank well. Specific proteinase activities were expressed in OD/min mg protein in triplicate (for three substrates).
as §1, §2

[3] = target: trypsin-like serine proteinase of R. ferrugineus midgut; test: Trypsin-like serine proteinase specific activity assay (BApNA) in 4th instar midgut homogenate; settings: for IC50 against trypsin-like serine proteinase: in vitro, midgut of 4th instar larvae; for Specific activity, Trypsin: control 4.10 ± 0.11
Protocol: as §3, §4, §1, §2

[4] = system: chymotrypsin-like serine proteinase of R. ferrugineus midgut; test: Chymotrypsin-like serine proteinase specific activity assay (SAAPFpNA) in 4th instar midgut homogenate; settings: for Specific activity, Chymotrypsin: control 7.35 ± 0.02
Protocol: as §3, §4, §1, §2

[5] = system: cysteine proteinase of R. ferrugineus midgut; test: Cysteine proteinase specific activity assay (Z-Phe-Arg-MNA) in 4th instar midgut homogenate; settings: for Specific activity, Cysteine Protease: control 0.59 ± 0.05
Protocol: as §1, §2

[6] = system: metalloproteinase of R. ferrugineus midgut; test: Metalloproteinase specific activity assay (azocasein) in 4th instar midgut homogenate; settings: control 1.15
Protocol: The 4th midgut larvae (10 larvae) were pulled out gently, excised, washed with saline solution (0.9% NaCl) repeatedly to remove foodstuff and then homogenized in a 500 µL assay buffer. […] The homogenates were centrifuged at 5000× g for 30 min using the Sigma 3k30 cooling centrifuge. The supernatants were used for estimation of enzyme activity and protein concentration. […] The reaction was stopped with 300 µL of cold 10% trichloroacetic acid (TCA) and proceeded for 180 min at 37 °C. The reaction mixture was centrifuged at 5000× g for 20 min using the Sigma 3k30 cooling centrifuge, 10 µL of 10 N NaOH was added to the supernatant, and absorbance at 450 nm was measured using an ELISA plate reader. An assay mixture without an enzyme was used as the blank. […] Specific protease inhibitors were added to the reactions of proteolytic activity determination assays, and the inhibitors were: PMSF, a general serine proteinase inhibitor; […] The inhibition assay was carried out on a microplate assay as described above. A series of inhibitor concentrations was prepared in order to establish the maximum inhibition by each inhibitor. […] An assay mixture without inhibitors was used as control. Absorbance was measured using an ELISA plate reader at different nm according to the type of enzymes. Percent activity of the control for each inhibitor was calculated to each enzyme.

O=S(=O)(F)Cc1ccccc1 [PMSF, phenymethanesulfonyl fluoride]
Inhibition of midgut proteases (in words) ([1]; purified proteases from midgut 4th larval instars): strongly inhibited | Specific activity, Elastase ([2]; inhibitor 0.1 mM): 6.46 ± 0.01 OD/mg protein min | Specific activity, Elastase ([2]; inhibitor 1 mM): 5.26 ± 0.03 OD/mg protein min | Specific activity, Elastase ([2]; inhibitor 10 mM): 4.18 ± 0.03 OD/mg protein min | Specific activity, Elastase ([2]; inhibitor 50 mM): 3.98 ± 0.0 OD/mg protein min

CC1=CCC(C(C)C)=CC1 [γ-terpinene]
IC50 against total proteases [1]: 137.3 µg/mL (≈ 1010 µM) | IC50 against elastase [2]: 163 µg/mL (≈ 1200 µM) | IC50 against trypsin-like serine proteinase [3]: 105.7 µg/mL (≈ 776 µM)

Cc1ccc(S(=O)(=O)N[C@@H](CCCCN)C(=O)CCl)cc1 [TLCK, N,p-tosyl-L-lysine chloromethyl ketone]
Specific activity, Trypsin ([3]; inhibitor 0.01 mM): 3.90 ± 0.11 OD/mg protein min | Specific activity, Trypsin ([3]; inhibitor 0.05 mM): 3.82 ± 0.1 OD/mg protein min | Specific activity, Trypsin ([3]; inhibitor 0.1 mM): 3.57 ± 0.1 OD/mg protein min | Specific activity, Trypsin ([3]; inhibitor 1 mM): 3.41 ± 0.09 OD/mg protein min | Specific activity, Trypsin ([3]; inhibitor 10 mM): 3.08 ± 0.1 OD/mg protein min | Specific activity, Trypsin ([3]; inhibitor 50 mM): 2.84 ± 0.09 OD/mg protein min | Specific activity, Trypsin ([3]; inhibitor 100 mM): 2.12 ± 0.1 OD/mg protein min | Inhibition of midgut instar proteases (in words) ([3]; trypsin-like serine proteinase inhibitor): significantly inhibited

Cc1ccc(C(C)C)c(O)c1 [thymol]
IC50 against total proteases [1]: 189.7 µg/mL (≈ 1260 µM) | IC50 against elastase [2]: 195 µg/mL (≈ 1300 µM)

Cc1ccc(S(=O)(=O)N[C@@H](Cc2ccccc2)C(=O)CCl)cc1 [TPCK, N,alpha-tosyl-L-phenylalanine chloromethyl ketone]
Inhibition of midgut instar proteases (in words) ([4]; chymotrypsin-like serine proteinase inhibitor): significantly inhibited | Specific activity, Chymotrypsin ([4]; inhibitor 0.01 mM): 6.97 ± 0.03 OD/mg protein min | Specific activity, Chymotrypsin ([4]; inhibitor 0.05 mM): 6.40 ± 0.02 OD/mg protein min | Specific activity, Chymotrypsin ([4]; inhibitor 0.1 mM): 6.18 ± 0.02 OD/mg protein min | Specific activity, Chymotrypsin ([4]; inhibitor 1 mM): 5.28 ± 0.02 OD/mg protein min | Specific activity, Chymotrypsin ([4]; inhibitor 10 mM): 4.87 ± 0.02 OD/mg protein min | Specific activity, Chymotrypsin ([4]; inhibitor 50 mM): 3.64 ± 0.03 OD/mg protein min | Specific activity, Chymotrypsin ([4]; inhibitor 100 mM): 2.02 ± 0.02 OD/mg protein min

C=CCc1ccc(O)c(OC)c1 [eugenol]
IC50 against total proteases [1]: 99.7 µg/mL (≈ 607 µM) | IC50 against trypsin-like serine proteinase [3]: 74.1 µg/mL (≈ 451 µM)

CC12CCC(CC1)C(C)(C)O2 [1,8-cineole]
IC50 against total proteases [1]: 92.1 µg/mL (≈ 597 µM) | IC50 against elastase [2]: 116 µg/mL (≈ 752 µM) | IC50 against trypsin-like serine proteinase [3]: 71.7 µg/mL (≈ 465 µM)

Cc1ccc(C(C)C)cc1 [p-cymene]
IC50 against total proteases [1]: 121.8 µg/mL (≈ 907 µM) | IC50 against elastase [2]: 169 µg/mL (≈ 1260 µM) | IC50 against trypsin-like serine proteinase [3]: 98.4 µg/mL (≈ 733 µM)

O=C(O)CI [Iodoacetic acid, iodoacetic acid]
Inhibition of midgut instar proteases (in words) ([5]; cysteine protease inhibitor): significantly inhibited | Specific activity, Cysteine Protease ([5]; inhibitor 0.01 mM): 0.28 ± 0.04 OD/mg protein min | Specific activity, Cysteine Protease ([5]; inhibitor 0.05 mM): 0.24 ± 0.05 OD/mg protein min | Specific activity, Cysteine Protease ([5]; inhibitor 0.1 mM): 0.19 ± 0.04 OD/mg protein min | Specific activity, Cysteine Protease ([5]; inhibitor 1 mM): 0.16 ± 0.05 OD/mg protein min

C=CC(C)(O)CCC=C(C)C (stereo not drawn) [linalool]
IC50 against total proteases [1]: 197 µg/mL (≈ 1280 µM) | IC50 against elastase [2]: 109.1 µg/mL (≈ 707 µM)

O=C([O-])CN(CCN(CC(=O)O)CC(=O)O)CC(=O)[O-].[Na+].[Na+] [EDTA, ethylenediaminetetraacetic acid disodium salt]
Specific activity, Metallo-Protease ([6]; inhibitor 0.1 mM): 0.89 ± 0.11 OD/mg protein min | Specific activity, Metallo-Protease ([6]; inhibitor 1 mM): 0.80 ± 0.11 OD/mg protein min | Specific activity, Metallo-Protease ([6]; inhibitor 10 mM): 0.68 ± 0.11 OD/mg protein min | Specific activity, Metallo-Protease ([6]; inhibitor 50 mM): 0.59 ± 0.1 OD/mg protein min | Specific activity, Metallo-Protease ([6]; inhibitor 100 mM): 0.42 ± 0.1 OD/mg protein min

C=C(C)C1CCC(C)(O)CC1 (stereo not drawn) [β-terpineol]
IC50 against total proteases [1]: 214 µg/mL (≈ 1390 µM)

CC(=O)N[C@@H](CC(C)C)C(=O)N[C@@H](CC(C)C)C(=O)N[C@H](C=O)CCCNC(=N)N [Leupeptin, leupeptin]
Specific activity, Total Proteases ([1]; inhibitor 0.01 mM): 0.12 ± 0.05 OD/mg protein min | Specific activity, Total Proteases ([1]; inhibitor 0.05 mM): 0.08 ± 0.05 OD/mg protein min | Specific activity, Total Proteases ([1]; inhibitor 0.1 mM): 0.07 ± 0.05 OD/mg protein min | Specific activity, Total Proteases ([1]; inhibitor 1 mM): 0.01 ± 0.05 OD/mg protein min
